Columns and labels:
[1] = test system: PI3K/Akt/mTOR signaling pathway in MCF7 cells; experiment: Immunoblotting of PI3K/Akt/mTOR phosphorylation; type: cell-based, human; details: 500 nM
Description: MCF7 cells were seeded onto 100 mm dishes (Corning) and cultivated for 24 h. Compound 7c was added at different concentrations while the reference compound wortmannin (Selleckchem, Houston, TX, USA) was used at 500 nM. The cells were harvested after 72 h of growth with the compounds. To prepare cell extracts, MCF7 cells were twice washed in phosphate buffer and incubated for 10 min on ice in the modified lysis buffer containing 50 mM Tris-HCl, pH 7.5, 0.5% Igepal CA-630, 150 mM NaCl, 1 mM EDTA, 1 mM DTT, 1 mM PMSF, 0.1 mM sodium orthovanadate and aprotinin, leupeptin, pepstatin (1 µg/mL each). The protein content was determined by the Bradford method. Cell lysates were separated in 10% SDS-PAGE under reducing conditions, transferred to a nitrocellulose membrane (GE HealthCare, Chicago, IL, USA), and processed according to a standard protocol. To prevent nonspecific absorption, the membranes were treated with 5% nonfat milk solution in TBS buffer (20 mM Tris, 500 mM NaCl, pH 7.5) with 0.1% Tween-20 and then incubated with primary antibodies (Cell Signaling Technology, Danvers, MA, USA) overnight at 4 °C. […] Signals were detected using the ECL reagent using the ImageQuant LAS4000 system (GE HealthCare, Chicago, IL, USA).
The signals of phospho-proteins to total ones were calculated using the ImageJ program from inverted images of the bands.

MCF7 = experiment: Antiproliferative activity, MTT assay; type: cell-based; details: Homo sapiens, 72 h, standard deviations within 50%
Description: (§1) Human breast cancer MCF7, MDA-MB-231, SkBr-3 (purchased from the ATCC collection), human keratinocytes HaCaT, murine fibroblasts L929 and macrophages J774 cells (Collection of Shemyakin-Ovchinnikov Institute of Bioorganic Chemistry RAS) were cultured in standard DMEM or RPMI-1640 medium (ThermoScientific, Waltham, MA, USA) supplemented with 10% fetal bovine serum (FBS, Cytiva, Marlborough, MA, USA) at 37 °C, 5 % CO2 and 80–85% humidity (NuAir CO2 incubator). The cell growth was evaluated by MTT (3-[4,5-dimethylthiazol-2-yl]-2,5-diphenyltetrazolium bromide) test. Cells were seeded at a density of 5 × 10^3 cells per well in 96-well flat-bottomed plates (TPP). The compounds were dissolved in DMSO (AppliChem) to 10 mM before the experiments, and then the resulting solutions were diluted by the medium to the required concentrations. Solutions of the tested compounds with different concentrations in 100 μL of the medium were added and the cells were grown for 72 h. MTT (10 μL/well, 5 mg/mL) was added for the final 3 h. The formazan purple crystals were dissolved in DMSO (100 μL per well). The absorbance of solutions was measured at 540 nm with a MultiScan reader (ThermoFisher). Results were analyzed by Excel package (Microsoft). The inhibition of proliferation (inhibitory index) was calculated as [1–(ODexperiment/ODcontrol)], where OD was MTT optical density. IC50 (Table 1) was determined as the concentration giving 50% of inhibition in the comparison with it […].

keratinocytes HaCaT = experiment: Antiproliferative activity, MTT assay; type: cell-based; details: Homo sapiens, 72 h, standard deviations within 50%
Description: as §1

MDA-MB-231 = experiment: Antiproliferative activity, MTT assay; type: cell-based, human; details: Homo sapiens, MDA-MB-231; MTT, 72 h; standard deviations within 50%
Description: as §1

fibroblasts L929 = experiment: Antiproliferative activity, MTT assay; type: cell-based, murine; details: Mus musculus, 72 h, standard deviations within 50%
Description: as §1

macrophages J774 = experiment: Antiproliferative activity, MTT assay; type: cell-based, murine; details: Mus musculus, 72 h, standard deviations within 50%
Description: as §1

[2] = molecular target: T1, recombinant PI3K (p110α/p85α) (Homo sapiens, UniProt P42336); experiment: PI3K inhibition assay (HTRF); type: biochemical; details: FRET/HTRF detection; approximate; read-out: IC50 PI3Kα
T1 construct: purchased Millipore 14-602
T1 sequence (P42336 whole entry): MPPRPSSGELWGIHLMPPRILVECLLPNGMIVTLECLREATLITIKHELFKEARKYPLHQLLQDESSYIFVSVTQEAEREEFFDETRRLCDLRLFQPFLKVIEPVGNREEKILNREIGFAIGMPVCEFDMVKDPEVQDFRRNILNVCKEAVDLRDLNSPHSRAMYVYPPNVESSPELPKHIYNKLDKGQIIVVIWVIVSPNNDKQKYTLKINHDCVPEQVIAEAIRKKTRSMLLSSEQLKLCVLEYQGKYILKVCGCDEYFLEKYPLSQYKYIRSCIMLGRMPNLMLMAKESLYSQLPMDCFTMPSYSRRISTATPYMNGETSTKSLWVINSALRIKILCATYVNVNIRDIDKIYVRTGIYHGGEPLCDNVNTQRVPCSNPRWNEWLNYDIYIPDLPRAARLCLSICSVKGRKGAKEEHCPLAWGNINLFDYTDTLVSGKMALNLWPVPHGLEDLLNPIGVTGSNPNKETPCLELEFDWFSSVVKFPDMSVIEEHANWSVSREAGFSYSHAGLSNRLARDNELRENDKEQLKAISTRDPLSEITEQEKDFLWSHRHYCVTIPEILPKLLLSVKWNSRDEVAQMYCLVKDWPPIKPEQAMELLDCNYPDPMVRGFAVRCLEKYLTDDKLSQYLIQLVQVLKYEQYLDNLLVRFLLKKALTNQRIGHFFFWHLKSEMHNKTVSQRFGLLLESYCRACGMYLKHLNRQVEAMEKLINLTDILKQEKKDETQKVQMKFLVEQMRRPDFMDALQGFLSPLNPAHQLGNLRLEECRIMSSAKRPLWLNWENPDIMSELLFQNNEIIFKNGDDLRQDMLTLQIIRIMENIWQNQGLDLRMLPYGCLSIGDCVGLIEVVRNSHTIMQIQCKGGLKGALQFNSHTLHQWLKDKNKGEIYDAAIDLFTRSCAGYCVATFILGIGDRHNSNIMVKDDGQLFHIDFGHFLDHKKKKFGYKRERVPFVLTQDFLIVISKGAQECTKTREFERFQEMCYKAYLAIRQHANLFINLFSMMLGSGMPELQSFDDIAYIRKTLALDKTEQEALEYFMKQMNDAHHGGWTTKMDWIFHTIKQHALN
T1 sequence (P27986 whole entry partner): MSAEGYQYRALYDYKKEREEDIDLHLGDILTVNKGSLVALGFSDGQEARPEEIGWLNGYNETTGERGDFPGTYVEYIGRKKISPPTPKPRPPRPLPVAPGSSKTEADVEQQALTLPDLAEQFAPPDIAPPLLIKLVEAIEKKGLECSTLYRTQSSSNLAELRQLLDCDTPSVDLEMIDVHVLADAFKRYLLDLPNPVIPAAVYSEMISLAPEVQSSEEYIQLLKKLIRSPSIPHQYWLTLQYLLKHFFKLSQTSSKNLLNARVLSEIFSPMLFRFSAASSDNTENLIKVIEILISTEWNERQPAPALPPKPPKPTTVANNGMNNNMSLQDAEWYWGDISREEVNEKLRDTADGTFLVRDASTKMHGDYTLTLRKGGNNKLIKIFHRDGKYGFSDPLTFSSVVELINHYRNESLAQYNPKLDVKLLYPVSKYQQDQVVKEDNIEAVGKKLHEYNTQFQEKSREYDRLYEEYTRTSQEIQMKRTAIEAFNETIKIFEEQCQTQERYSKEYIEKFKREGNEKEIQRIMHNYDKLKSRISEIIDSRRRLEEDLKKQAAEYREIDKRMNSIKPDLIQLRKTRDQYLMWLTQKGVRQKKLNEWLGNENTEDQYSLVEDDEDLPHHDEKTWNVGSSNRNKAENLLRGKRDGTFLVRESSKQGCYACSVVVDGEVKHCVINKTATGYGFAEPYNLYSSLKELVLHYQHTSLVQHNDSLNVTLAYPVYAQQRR
Description: The PI 3-Kinase (Class I) HTRF Assay Kit (Cat# 33-016 from Millipore) was used to determine the activity of recombinant PI3K (p110α/p85α) human (Cat# 14-602 from Millipore). The kit was supplemented with ATP (Cat# A26209 from Sigma-Aldrich, St. Louis, MI, USA), DL-dithiothreitol (Cat# S-[…]-1 from Sigma-Aldrich), and Wortmannin inhibitor (Cat# 12-338 from Millipore, Burlington, MA, USA). The latter was used at 0.1 μM concentration. For measurements, a Victor ×5 plate reader (PerkinElmer, 2030, Waltham, MA, USA) was used in TRF mode with excitation at 340 nm. Fluorescence emission was recorded at 613 and 670 nm in a 384-well plate (Cat# S-CLS3658 from Sigma-Aldrich) at a time interval of 150-350 μs. The enzymatic reaction and the determination of its products were carried out according to the recommendations of the reagent kit manufacturer (Millipore) in two wells for each sample. In calculations, readings in parallel wells were averaged. The calculations were made according to the recommendations of the equipment manufacturer.

SkBr-3 cells = experiment: Cell cycle analysis (PI-stained DNA, flow cytometry); type: cell-based, human
Description: The cell cycle was analyzed using PI-stained DNA. Cells from the compounds 7 treated cultures were collected at 24, 48, and 72 h, trypsinized, washed in ice-cold PBS, fixed by the addition of 70% ethanol and left for 2 h at −20 °C. Thereafter, the cells were washed twice in PBS, stained with 50 μg/mL of propidium iodide (Sigma, Merck KGaA, Darmstadt, Germany) in PBS, treated with 10 µg/mL of RNAse and analyzed by flow cytometry using FACScan device (BD, USA). A total of 2000 events were collected. The results were analyzed using FlowJo 10 software (BD, Franklin Lakes, NJ, USA).

MCF7 breast cancer cells = test system: MCF7 breast cancer cells; design: method as in PMID 32825760; details: read-out: Concentration causing 50% suppression of MCF7 cell growth; cited from earlier work

Compound | IC50 (MCF7) [µM] | melting point [°C] | IC50 (MDA-MB-231) [µM] | IC50 [2] [µM] | Effect on PI3K/Akt/mTOR signaling pathway [1] | IC50 (keratinocytes HaCaT) [µM] | IC50 (fibroblasts L929) [µM] | IC50 (macrophages J774) [µM] | Concentration above which all cells died (SkBr-3 cells) | Concentration below which no changes in the cell cycle were found (SkBr-3 cells) | IC50 (MCF7 breast cancer cells) [µM]
COC[C@H]1OC(=O)c2coc3c2[C@@]1(C)C1=C(C3=O)[C@@H]2CCC(=O)[C@@]2(C)C[C@H]1OC(C)=O [wortmannin, reference compound] |  |  |  |  | neither affects PI3K/Akt/mTOR signaling pathway even at 500 nM |  |  |  |  |  | 
C#CCNC(=O)Nc1ccc(-c2ccc3c(N4CCOCC4)nc(N4CCOCC4)nc3c2)cc1 [Compound 7l, 1-(4-(2,4-Dimorpholinoquinazolin-7-yl)phenyl)-3-(prop-2-yn-1-yl)urea] | > 50 | 168 to 170 | > 50 |  |  | 3 | > 50 | 6 |  |  | 
COc1ccc(CNC(=O)Nc2ccc(-c3ccc4c(N5CCOCC5)nc(N5CCOCC5)nc4c3)cc2)cc1 [Compound 7b, 1-(4-(2,4-Dimorpholinoquinazolin-7-yl)phenyl)-3-(4-methoxybenzyl)urea] | 1.1 |  | 1.7 | ~50 |  | 0.8 | 12 | 1.6 | higher than 10 μM | below 1 μM | 
O=C(Nc1ccc(-c2ccc3c(N4CCOCC4)nc(N4CCOCC4)nc3c2)cc1)Nc1cccc2ccccc12 [Compound 7i, 1-(4-(2,4-Dimorpholinoquinazolin-7-yl)phenyl)-3-(naphthalen-1-yl)urea] | 6.1 | 228 to 230 | 11 |  |  | 6 | 6 | 6 |  |  | 
O=C(Nc1ccc(F)cc1)Nc1ccc(-c2ccc3c(N4CCOCC4)nc(N4CCOCC4)nc3c2)cc1 [Compound 7g, 1-(4-(2,4-Dimorpholinoquinazolin-7-yl)phenyl)-3-(4-fluorophenyl)urea] | 4.9 |  | 14 |  |  | 25 | 25 | 6 |  |  | 
CN(C)C(=N)N=C(N)N [MF, metformin] |  |  |  |  |  |  |  |  |  |  | 5800
O=C(NCc1ccco1)Nc1ccc(-c2ccc3c(N4CCOCC4)nc(N4CCOCC4)nc3c2)cc1 [Compound 7a, 1-(4-(2,4-Dimorpholinoquinazolin-7-yl)phenyl)-3-(furan-2-ylmethyl)urea] | 6.6 | 184 to 186 | 6.7 |  |  |  |  |  |  |  | 

The next lines start with results.

IC50 (MCF7) [µM] | melting point [°C] | IC50 (MDA-MB-231) [µM] | IC50 [2] [µM] | Compound | Effect on PI3K/Akt/mTOR signaling pathway [1] | IC50 (keratinocytes HaCaT) [µM] | IC50 (fibroblasts L929) [µM] | IC50 (macrophages J774) [µM] | Concentration above which all cells died (SkBr-3 cells) | Concentration below which no changes in the cell cycle were found (SkBr-3 cells) | IC50 (MCF7 breast cancer cells) [µM]
13 | 210 to 212 | 14 |  | O=C(Nc1ccc(-c2ccc3c(N4CCOCC4)nc(N4CCOCC4)nc3c2)cc1)Nc1ccccn1 [Compound 7h, 1-(4-(2,4-Dimorpholinoquinazolin-7-yl)phenyl)-3-(pyridin-2-yl)urea] |  | 3 | 12 | 6 |  |  | 
 | 191 to 193 |  |  | Nc1ccc(-c2ccc3c(N4CCOCC4)nc(N4CCOCC4)nc3c2)cc1 [Compound 6, 4-(2,4-Dimorpholinoquinazolin-7-yl)aniline] |  |  |  |  |  |  | 
3.8 |  | 4.1 |  | COC(=O)c1ccc(NC(=O)Nc2ccc(-c3ccc4c(N5CCOCC5)nc(N5CCOCC5)nc4c3)cc2)cc1 [Compound 7j, Methyl 4-(3-(4-(2,4-Dimorpholinoquinazolin-7-yl)phenyl)ureido)benzoate] |  | 3 | 3 | 0.8 | higher than 10 μM | below 1 μM | 
6.5 | 240 to 242 | 8.8 |  | O=C(Nc1ccc(-c2ccc3c(N4CCOCC4)nc(N4CCOCC4)nc3c2)cc1)Nc1ccc([N+](=O)[O-])cc1 [Compound 7f, 1-(4-(2,4-Dimorpholinoquinazolin-7-yl)phenyl)-3-(4-nitrophenyl)urea] |  | 3 | 12 | 6 |  |  | 
5.2 | 83 to 85 | 10.5 |  | O=C(Nc1ccc(-c2ccc3c(N4CCOCC4)nc(N4CCOCC4)nc3c2)cc1)NC1CC1 [Compound 7d, 1-Cyclopropyl-3-(4-(2,4-dimorpholinoquinazolin-7-yl)phenyl)urea] |  |  |  |  |  |  | 
9.5 | 89 to 91 | 24 |  | N[C@@H](CCCCNC(=O)Nc1ccc(-c2ccc3c(N4CCOCC4)nc(N4CCOCC4)nc3c2)cc1)C(=O)O [Compound 7e, N6-((4-(2,4-Dimorpholinoquinazolin-7-yl)phenyl)carbamoyl)lysine] |  | 12 | 12 | 12 |  |  | 
11 | 109 to 111 | 17 |  | CCOC(=O)N1CCN(C(=O)Nc2ccc(-c3ccc4c(N5CCOCC5)nc(N5CCOCC5)nc4c3)cc2)CC1 [Compound 7k, Ethyl 4-((4-(2,4-Dimorpholinoquinazolin-7-yl)phenyl)carbamoyl)piperazine-1-carboxylate] |  | 6 | 25 | 3 |  |  | 
